Experimental data as given in patent publication US5491220A, “Surface loop structural analogues of fibroblast growth factors” (Yeda Research and Development Co., Ltd., priority 1994, dated 1996).
“Also recorded” adds a separate entry of the source.

What was measured:
FGFR1 = assay: Chemical cross-linking of 125I-FGF to soluble FGFR1; format: binding, murine; details: with and without excess unlabelled FGF
Protocol: (§1) Binding of FGF proteins to different FGF receptors are determined in this example, by measuring the degree of competition for binding to different types of FGF-receptor proteins between a radioiodinated FGF protein and various unlabelled proteins, or by the direct binding of radioiodinated FGF's to various receptor proteins. Binding studies are confirmed by chemical cross-linking of the radioiodinated FGF to soluble receptors in the presence and absence of excess unlabelled FGF.
(§2) Soluble FGF receptor proteins are constructed by cloning of the extracellular region of murine FGF receptor 1 (FGFR-1; flg), FGF receptor 2 (FGFR-2; bek) or the KGF receptor (FGFR(IIIb); K-sam) into the alkaline phosphatase-tag expression vector, which encodes for a secreted form of placental alkaline phosphatase (AP). The FGF receptor alkaline phosphatase (FRAP) plasmids are cotransfected into NIH 3T3 cells by electroporation with a selectable neomycin resistance gene. Clonies are selected in G418 (600 μg/ml) and screened for secreted AP enzyme activity in the conditioned medium. Clones of each receptor which produced a high level of AP activity (2 to 4 A405 units/min/ml) are then used to produce conditioned medium for binding assays.
(§3) Chemical cross-linking experiments are carried out at room temperature in a volume of 20 μl in siliconized 0.5-ml microcentrifuge tubes. The reaction mixtures contain FGF receptor immobilized to anti-AP monoclonal antibodies coupled to protein A Sepharose®, 200 ng/ml heparin, 2 ng/ml^125 I-bFGF, 20 mM phosphate buffer (pH 7.4), and 140 mM NaCl. After a 90 minute incubation, […] of a solution of disuccinimidyl suberate (Pierce) dissolved in dimethyl sulfoxide is added to give a final concentration of 0.15 mM, and the mixture incubated for an additional 30 minutes. The reaction is quenched by addition of […] of 200 mM ethanolamine-HCl (pH 8.0) for 30 min. The reaction mixtures are diluted 1:1 with 2× SDS-polyacrylamide gel electrophoresis loading buffer and electrophoresed on an SDS-12% polyacrylamide gel. Cross-linked FGF to the FGF receptor are detected by autoradiography on Kodak XAR film.

[1] = system: FGFR2(IIIb) (FGF-7 or KGF receptor); assay: Competition binding to soluble FGFR2(IIIb) (displacement of 125I-FGF-7); parameters: species or system murine; details: 200 ng/ml heparin
Protocol: as §1, §2
(§4) Components of the soluble receptor binding reaction mixture include FRAP-conditioned medium (0.24 OD units/min), 2 ng/ml^125 I-FGFs and 200 ng/ml heparin. The FGF:heparin:FRAP terniary complex is immunoprecipitated with 20 μl of a 1:1 slurry of anti-AP monoclonal antibodies coupled to protein A Sepharose®. All components are mixed at room temperature. The total volume is adjusted to 200 μl by addition of DMEM containing 0.1% bovine serum albumin. Binding is allowed to proceed for 1 to 2 hours at 24° C., after which time bound receptor complex or the ligand is recovered by centrifugation at 4° C. (10 s at 2,000×g). The pelleted material is washed twice with 500 μl of an ice cold buffer containing HEPES (20 mM), NaCl (150 mM), glycerol (10%) and Triton® X-100 (1%). ^125 I-FGF binding is quantitated by counting of the samples in a gamma counter (LKB). Alternatively, AP enzyme activity of the FRAP protein is determined by transferring the FRAP receptor bound to […] to a flat-bottom microtiter plate in a volume of 50 μl of PBS. The reaction is initiated by addition of substrate (50 μl of 2× solution of AP assay buffer containing 2M diethanoiamine, 1 mM MgCl2, 20 mM homoarginine and 12 mM p-nitrophenyl phosphate). The reaction is followed at room temperature at 405 nm in a kinetic microplate reader.

FGFR2(IIIb) = assay: Chemical cross-linking of 125I-FGF to soluble FGFR2(IIIb); format: binding, murine; details: with and without excess unlabelled FGF
Protocol: as §1, §2, §3

[2] = system: soluble FGF receptor 1 (FGFR-1; flg); assay: Competition binding to soluble FGFR1 (displacement of 125I-FGF-2); parameters: species or system murine; details: 200 ng/ml heparin
Protocol: as §1, §2, §4

[3] = system: FGF receptor on BHK cells; assay: Competition for 125I-FGF-2 binding to baby hamster kidney (BHK) cells; details: 50 pM 125I-FGF-2; compared with FGF-2
Protocol: FGF-2LI and FGF-2LA are tested for their capacity to compete for the binding of ^125 I-FGF-2 (Amersham Corp.) to baby hamster kidney (BHK) cells, which express high numbers of FGF receptor. The assay employed is described by Moscatelli (J. Cell. Physiol. 131: 123-130 (1987)). Briefly stated, BHK cells plated on 24-well plates are incubated with 50 pM ^125 I-FGF-2 with serial dilutions of unlabelled FGF-2, FGF-2LI or FGF-2LA loop mutants at room temperature for 1 hour or at 4° C. for 2 hours. The cells are then incubated at 4° C. for 30 minutes, washed twice with phosphate-buffered saline and treated with 20 mM HEPES (N-2-hydroxyethyl-piperazine-N'-2-ethanesulfonic acid), pH 7.5, containing 2M NaCl to remove ^125 I-FGF-2 bound to low affinity heparin sulfate binding sites. Receptor bound ^125 I-FGF-2 is recovered by treatment of the cells with 0.5% Triton X-100 in 0.1M sodium phosphate, pH 8, and counted in a γ-counter. Assays are conducted in duplicate.

[4] = Affinity for immobilized heparin (NaCl elution from heparin column); format: binding
Protocol: Cells from 1 liter cultures are harvested by centrifugation, resuspended in 30 ml of 50 mM Tris-HCl, pH 7.5 containing 0.1 mM EDTA and 0.6M NaCl, and disrupted by treatment with lysozyme (10 μg/ml) for 20 min at 4° C. followed by sonication (6×30 sec pulses). The lysates are clarified by centrifugation (10,000×g; 20 min) and the supernatant solutions incubated with 5 ml of hydrated heparin Sepharose (Pharmacia/LKB) at 4° C. for 1 hour with constant rotation. The resin is isolated by filtration on 0.8 μm filter apparatus (Nalgene), washed extensively with 10 mM Tris-HCl pH 7.4 containing 0.6M NaCl and bound protein eluted with Tris buffer containing 3M NaCl (25 ml). The 3M NaCl eluent is diluted 6-fold with Tris buffer and loaded onto a TSK heparin 5PW column (0.21×15 cm; The Nest Group, MA) and the column developed using a linear NaCl gradient (0.6 to 2M) in 90 min at a flow rate of […].
NaCl elution from heparin-Sepharose® is about 0.7M NaCl, compared with 1.4M NaCl for the wild-type protein. The molarity of NaCl required to elute the LK mutant is similar to that required to elute FGF-7.

neovascularization = assay: In vivo angiogenesis, rabbit ear chamber model
Protocol: In an in vivo model of angiogenesis, FGF-2LI is evaluated using the rabbit ear chamber system modified and improved by Howden, G. F., and Silver, I. A., (Int. Endodontic J. 13: 3-16 (1980)), observing the growth factor-induced neovascularization, or its inhibition, by modified growth factors or other reagents.
Rabbits are sedated using 50-70 mg/kg ketamine and 10 mg/kg xylozine administered intramuscularly. The ears are shaved with an electric hair clipper and cleaned with water, followed by Betadine®. To minimize the risk of infection, the rabbits are given 20,000 units/kg benzathine penicillin intramuscularly prior to insertion of the ear chambers. The chamber is inserted into an approximately 0.75 cm area which is not crossed by any major vessels. During the course of the experiments, observations or any minor handling of ear chambers of the animals is done by sedating the animal using the intramuscular administration of a combination of Butorphanol® and acepromazine at levels of 1 mg/kg each. FGF-2 or FGF-2LI bound to heparin-Sepharose® beads in a controlled-release alginate capsule is contained in one of the ear chambers and the other is used as a control containing only the heparin-Sepharose® alginate capsule vehicle. Thus, the effect of the growth factors and the controlled-release capsule alone can be observed simultaneously in the same animal. […] The animals are kept for 4 to 6 weeks and neovascularization is observed visually and recorded photographically at weekly intervals.
The criteria for evaluation of the degree of neovascularization using this procedure is set out below.

Substance	Cross-linking to FGFR1 (FGFR1)	Binding to soluble FGFR2(IIIb) (competition with 125I-FGF-7) [1]	Cross-linking to FGFR2(IIIb) (FGFR2(IIIb))	Binding to soluble FGFR1 (competition with 125I-FGF-2) [2]	Capacity to compete with 125I-FGF-2 binding to FGF receptors on BHK cells [3]	NaCl concentration at elution from TSK-heparin column ([4]; TSK-heparin column)	NaCl elution from heparin-Sepharose ([4]; heparin-Sepharose) [M]	Angiogenesis at 400 ng/chamber (neovascularization; 400 ng/chamber)	Concentration range over which stimulatory activity is observed (neovascularization; rabbit ear chamber)	Potential to induce angiogenesis (neovascularization) (neovascularization; rabbit ear chamber, controlled-release alginate capsule)	Vessel formation in the chamber (neovascularization; rabbit ear chamber, versus control chambers)
FGF-1: acidic fibroblast growth factor	bind	bind with the same affinity	bind	bind equally well	affinity equal to that of FGF-2						
FGF-2: basic fibroblast growth factor, wild-type factor used as comparator (NNYNTYRSRKYTSWYVALKRT) [reference compound]	bind	do not bind; also recorded: does not compete	excluded from binding	bind equally well		about 1.5 M	1.4	completely inhibited	10-100 ng/chamber	dose-dependent induction of new blood vessels	stimulate large vessel formation
FGF-7: fibroblast growth factor-7, also known as keratinocyte growth factor or KGF (NHYNTYASAKWTHNGGEMFVALNQK)	not detected	bind with the same affinity	bind	no binding							
hrIL-1β: human recombinant interleukin-1β (Biogen) [reference compound]					no binding						
